Source: US9353107B2 (Aurigene Discovery Technologies Limited, priority 2012, dated 2016)
Counter-ions that a name gives are not always drawn.

Target: T1, recombinant human ALK enzyme (ALK WT) (Homo sapiens, UniProt Q9UM73)
T1 construct: purchased Carna Biosciences 08-518
Assay: ALK WT cell free enzymatic assay (TR-FRET)
Type: biochemical
Conditions: 1 μM ATP; for IC50: 10 point dose response; for inhibition at 0.1 µM: compound at 100 nM; for inhibition at 0.1 µM / inhibition at 1 µM: 30 min pre-incubation; for inhibition at 1 µM: compound at 1 μM
Outline: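 Read-out is TR-FRET (665 nm/615 nm ratio) using an Eu-labeled anti-phosphotyrosine antibody. Compound is pre-incubated 30 min with recombinant human ALK, then reacted 30 min with 1 μM ATP and 40 nM Poly GT substrate. Values are percent inhibition at 100 nM and 1 μM, plus IC50 from 10-point variable-slope regression.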

T1 sequence (Q9UM73 1058-1620 limits assumed): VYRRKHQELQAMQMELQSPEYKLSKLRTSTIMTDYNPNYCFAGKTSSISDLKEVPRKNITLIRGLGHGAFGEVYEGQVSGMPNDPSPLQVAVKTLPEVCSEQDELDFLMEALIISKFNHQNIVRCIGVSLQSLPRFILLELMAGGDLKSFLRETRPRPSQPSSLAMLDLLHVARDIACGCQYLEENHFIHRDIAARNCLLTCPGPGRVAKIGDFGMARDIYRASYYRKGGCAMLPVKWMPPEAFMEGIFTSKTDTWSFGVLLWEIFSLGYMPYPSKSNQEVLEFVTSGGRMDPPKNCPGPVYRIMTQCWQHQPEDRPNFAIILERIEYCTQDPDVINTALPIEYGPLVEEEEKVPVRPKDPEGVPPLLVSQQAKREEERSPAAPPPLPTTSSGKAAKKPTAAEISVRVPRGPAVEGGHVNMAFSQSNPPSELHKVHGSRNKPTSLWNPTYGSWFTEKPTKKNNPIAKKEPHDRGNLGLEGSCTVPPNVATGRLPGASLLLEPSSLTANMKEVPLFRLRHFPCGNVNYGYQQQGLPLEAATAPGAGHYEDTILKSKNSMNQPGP

Row | SMILES | IC50 [nM] | inhibition at 0.1 µM [%] | inhibition at 1 µM [%]
1 | Cc1nn(Cc2cccc(F)c2)c(C)c1-c1c[nH]c2ncc(-c3ccc(N4CCN(C)CC4)cc3)cc12 [Example 56, 3-(1-(3-fluorobenzyl)-3,5-dimethyl-1H-pyrazol-4-yl)-5-(4-(4-methylpiperazin-1-yl)phenyl)-1H pyrrolo[2,3-b]pyridine] | < 50 | 91 | 100
2 | Cc1nn(Cc2cccc(F)c2)c(C)c1-c1c[nH]c2ncc(-c3ccc(N4CCN(CCN(C)C)CC4)cc3)cc12 [Example 57, 2-(4-(4-(3-(1-(3-fluorobenzyl)-3,5-dimethyl-1H-pyrazol-4-yl)-1H-pyrrolo[2,3-b]pyridin-5-yl)phenyl)piperazin-1-yl)-N,N-dimethylethanamine] | < 50 | 93 | 100
3 | Cc1nn(Cc2cccc(F)c2)c(C)c1-c1c[nH]c2ncc(-c3ccc(N4CCNCC4)c(NS(C)(=O)=O)c3)cc12 [Example 58, N-(5-(3-(1-(3-fluorobenzyl)-3,5-dimethyl-1H-pyrazol-4-yl)-1H-pyrrolo[2,3-b]pyridin-5-yl)-2-(piperazin-1-yl)phenyl)methanesulfonamide hydrochloride] | < 50 | 92 | 100
4 | Cc1nn(Cc2cccc(F)c2)c(C)c1-c1c[nH]c2ncc(-c3ccc(N4CCOCC4)c(NS(C)(=O)=O)c3)cc12 [Example 59, N-(5-(3-(1-(3-fluorobenzyl)-3,5-dimethyl-1H-pyrazol-4-yl)-1H-pyrrolo[2,3-b]pyridin-5-yl)-2-morpholinophenyl)methanesulfonamide] | 50 to 250 | 49 | 77
5 | Cc1nn(Cc2cc(F)cc(F)c2)c(C)c1-c1c[nH]c2nc(C3CC3)c(-c3ccc(N4CCNCC4)cc3)cc12 [Example 60, 6-cyclopropyl-3-(1-(3,5-difluorobenzyl)-3,5-dimethyl-1H-pyrazol-4-yl)-5-(4-(piperazin-1-yl)phenyl)-1H-pyrrolo[2,3-b]pyridine hydrochloride] | – | 9 | 10
6 | COc1cc(N2CCNCC2)ccc1-c1cnc2[nH]cc(-c3c(C)nn(Cc4cccc(F)c4)c3C)c2c1 [Example 61, 3-(1-(3-fluorobenzyl)-3,5-dimethyl-1H-pyrazol-4-yl)-5-(2-methoxy-4-(piperazin-1-yl)phenyl)-1H-pyrrolo[2,3-b]pyridine hydrochloride] | < 50 | 73 | 96
7 | COc1cc(-c2cnc3[nH]cc(-c4c(C)nn(Cc5cccc(F)c5)c4C)c3c2)ccc1N1CCNCC1 [Example 62, 3-(1-(3-fluorobenzyl)-3,5-dimethyl-1H-pyrazol-4-yl)-5-(3-methoxy-4-(piperazin-1-yl)phenyl)-1H-pyrrolo[2,3-b]pyridine hydrochloride] | < 50 | 87 | 100
8 | Cc1nn(Cc2cccc(F)c2)c(C)c1-c1c(C2CC2)[nH]c2ncc(-c3ccc(N4CCNCC4)cc3)cc12 [Example 63, 2-cyclopropyl-3-(1-(3-fluorobenzyl)-3,5-dimethyl-1H-pyrazol-4-yl)-5-(4-(piperazin-1-yl)phenyl)-1H-pyrrolo[2,3-b]pyridine] | – | 15 | 48
9 | COc1ccc(-c2cnc3[nH]cc(-c4cnn(CCc5ccccc5)c4)c3c2)cc1NS(C)(=O)=O [Example 64, N-(2-methoxy-5-(3-(1-phenethyl-1H-pyrazol-4-yl)-1H-pyrrolo[2,3-b]pyridin-5-yl)phenyl) methanesulfonamide] | < 50 | 59 | 82
10 | COc1ncc(-c2cnc3[nH]cc(-c4cnn(Cc5cccc(F)c5)c4)c3c2)cc1N [Example 65, 5-(3-(1-(3-fluorobenzyl)-1H-pyrazol-4-yl)-1H-pyrrolo[2,3-b]pyridin-5-yl)-2-methoxypyridin-3-amine] | < 50 | 97 | 100
11 | Cc1nn(Cc2cccc(F)c2)c(C)c1-c1c[nH]c2ncc(-c3cnc(O)c(NS(C)(=O)=O)c3)cc12 [Example 66, N-(5-(3-(1-(3-fluorobenzyl)-3,5-dimethyl-1H-pyrazol-4-yl)-1H-pyrrolo[2,3-b]pyridin-5-yl)-2-hydroxypyridin-3-yl)methanesulfonamide] | – | 38 | 95
12 | COc1ncc(-c2cnc3[nH]cc(-c4cnn(Cc5cccc(F)c5)c4)c3c2)cc1NS(C)(=O)=O [Example 67, N-(5-(3-(1-(3-fluorobenzyl)-1H-pyrazol-4-yl)-1H-pyrrolo[2,3-b]pyridin-5-yl)-2-methoxypyridin-3-yl)methanesulfonamide] | < 50 | 98 | 100
13 | COc1cc(-c2cnc3[nH]cc(-c4cnn(Cc5cccc(F)c5)c4)c3c2)ccc1NS(C)(=O)=O [Example 68, N-(4-(3-(1-(3-fluorobenzyl)-1H-pyrazol-4-yl)-1H-pyrrolo[2,3-b]pyridin-5-yl)-2-methoxyphenyl) methanesulfonamide] | – | 70 | 93
14 | COc1ccc(-c2cnc3[nH]cc(-c4ccn(Cc5cc(F)cc(F)c5)n4)c3c2)cc1NS(C)(=O)=O [Example 69, N-(5-(3-(1-(3,5-difluorobenzyl)-1H-pyrazol-3-yl)-1H-pyrrolo[2,3-b]pyridin-5-yl)-2-methoxyphenyl)methanesulfonamide] | – | 15 | 76
15 | COc1ccc(-c2cnc3[nH]cc(-c4cnn(Cc5cc(F)ccc5F)c4)c3c2)cc1NS(C)(=O)=O [Example 70, N-(5-(3-(1-(2,5-difluorobenzyl)-1H-pyrazol-4-yl)-1H-pyrrolo[2,3-b]pyridin-5-yl)-2-methoxyphenyl)methanesulfonamide] | < 50 | 91 | 99
16 | COc1ccc(-c2cnc3[nH]cc(-c4cnn(Cc5cc(F)cc(F)c5)c4)c3c2)cc1NS(C)(=O)=O [Example 71, N-(5-(3-(1-(3,5-difluorobenzyl)-1H-pyrazol-4-yl)-1H-pyrrolo[2,3-b]pyridin-5-yl)-2-methoxyphenyl)methanesulfonamide] | < 50 | 94 | 100
17 | COc1ccc(-c2cnc3[nH]cc(-c4cnn(Cc5cccnc5)c4)c3c2)cc1NS(C)(=O)=O [Example 72, N-(2-methoxy-5-(3-(1-(pyridin-3-ylmethyl)-1H-pyrazol-4-yl)-1H-pyrrolo[2,3-b]pyridin-5-yl)phenyl)methanesulfonamide] | 50 to 250 | 76 | 100
18 | COc1cc(-c2cnc3[nH]cc(-c4cnn(Cc5cc(F)cc(F)c5)c4)c3c2)ccc1NS(C)(=O)=O [Example 73, N-(4-(3-(1-(3,5-difluorobenzyl)-1H-pyrazol-4-yl)-1H-pyrrolo[2,3-b]pyridin-5-yl)-2-methoxyphenyl)methanesulfonamide] | < 50 | 92 | 97
19 | COc1ccc(-c2cnc3[nH]cc(-c4cnn(CCc5ccccc5F)c4)c3c2)cc1NS(C)(=O)=O [Example 74, N-(5-(3-(1-(2-fluorophenethyl)-1H-pyrazol-4-yl)-1H-pyrrolo[2,3-b]pyridin-5-yl)-2-methoxyphenyl)methanesulfonamide] | 50 to 250 | 51 | 92
20 | COc1ccc(-c2cnc3[nH]cc(-c4cnn(CCc5cccc(F)c5)c4)c3c2)cc1NS(C)(=O)=O [Example 75, N-(5-(3-(1-(3-fluorophenethyl)-1H-pyrazol-4-yl)-1H-pyrrolo[2,3-b]pyridin-5-yl)-2-methoxyphenyl)methanesulfonamide] | < 50 | 61 | 100
21 | COc1ccc(-c2cnc3[nH]cc(-c4cnn(CCc5ccc(F)cc5)c4)c3c2)cc1NS(C)(=O)=O [Example 76, N-(5-(3-(1-(4-fluorophenethyl)-1H-pyrazol-4-yl)-1H-pyrrolo[2,3-b]pyridin-5-yl)-2-methoxyphenyl)methanesulfonamide] | 50 to 250 | 32 | 94
22 | CS(=O)(=O)Nc1cc(-c2cnc3[nH]cc(-c4cnn(CCc5ccccc5)c4)c3c2)ccc1F [Example 77, N-(2-fluoro-5-(3-(1-phenethyl-1H-pyrazol-4-yl)-1H-pyrrolo[2,3-b]pyridin-5-yl)phenyl)methane sulfonamide] | < 50 | 85 | 100
23 | CS(=O)(=O)Nc1cc(-c2cnc3[nH]cc(-c4cnn(Cc5cccc(F)c5)c4)c3c2)ccc1F [Example 78, N-(2-fluoro-5-(3-(1-(3-fluorobenzyl)-1H-pyrazol-4-yl)-1H-pyrrolo[2,3-b]pyridin-5-yl)phenyl) methanesulfonamide] | < 50 | 100 | 101
24 | CS(=O)(=O)Nc1cc(-c2cnc3[nH]cc(-c4cnn(Cc5cc(F)cc(F)c5)c4)c3c2)ccc1F [Example 79, N-(5-(3-(1-(3,5-difluorobenzyl)-1H-pyrazol-4-yl)-1H-pyrrolo[2,3-b]pyridin-5-yl)-2-fluorophenyl) methanesulfonamide] | < 50 | 101 | 102
25 | Cc1nn(Cc2cc(F)cc(F)c2)c(C)c1-c1c[nH]c2ncc(-c3ccc(F)c(NS(C)(=O)=O)c3)cc12 [Example 80, N-(5-(3-(1-(3,5-difluorobenzyl)-3,5-dimethyl-1H-pyrazol-4-yl)-1H-pyrrolo[2,3-b]pyridin-5-yl)-2-fluorophenyl)methanesulfonamide] | 50 to 250 | 65 | 93
26 | COc1cc(-c2cnc3[nH]cc(-c4cnn(Cc5cccc(F)c5)c4)c3c2)cnc1N [Example 81, 5-(3-(1-(3-fluorobenzyl)-1H-pyrazol-4-yl)-1H-pyrrolo[2,3-b]pyridin-5-yl)-3-methoxypyridin-2-amine] | < 50 | 94 | 96
